Data reported in patent US9149038B2, “4-amino-6-(heterocyclic)picolinates and 6-amino-2-(heterocyclic)pyrimidine-4-carboxylates and their use as herbicides” (Dow AgroSciences LLC, priority 2013, dated 2015).
Like-named read-outs stand apart in the source and are kept apart here.

What was measured:
[1] = tested on: Key Grass and Sedge Weeds as well as Grass Crops; assay: Post-Emergent Test II: postemergent herbicidal activity, visual rating after 14 d (Table 8); type: in vivo; settings: post-emergence, 336 h; for pest or weed control at 35 g/ha: 35 g ai/ha; for pest or weed control at 70 g/ha: 70 g ai/ha; for pest or weed control at 140 g/ha: 140 g ai/ha
Excerpt: (§1) Herbicidal evaluations were made visually on a scale of 0 to 100 where 0 represents no activity and 100 represents complete plant death.
(§2) Seeds or nutlets of the desired test plant species were planted in Sun Gro Metro-Mix® 360 planting mixture, which typically has a pH of 6.0 to 6.8 and an organic matter content of about 30 percent, in plastic pots with a surface area of 64 square centimeters (cm^2). When required to ensure good germination and healthy plants, a fungicide treatment and/or other chemical or physical treatment was applied. The plants were grown for 7-21 d in a greenhouse with an approximate 15 h photoperiod which was maintained at about 23-29° C. during the day and 22-28° C. during the night. Nutrients and water were added on a regular basis and supplemental lighting was provided with overhead metal halide 1000-Watt lamps as necessary. The plants were employed for testing when they reached the first or second true leaf stage.
(§3) A weighed amount, determined by the highest rate to be tested, of each test compound was placed in a 25 mL glass vial and was dissolved in 4 mL of a 97:3 v/v mixture of acetone and DMSO to obtain concentrated stock solutions. […] The concentrated stock solutions obtained were diluted with 20 mL of an aqueous mixture containing acetone, water, isopropyl alcohol, DMSO, Atplus 411F crop oil concentrate, and Triton® X-155 surfactant in a 48.5:39:10:1.5:1.0:0.02 v/v ratio to obtain spray solutions containing the highest application rates. Additional application rates were obtained by serial dilution of 12 mL of the high rate solution into a solution containing 2 mL of a 97:3 v/v mixture of acetone and DMSO and 10 mL of an aqueous mixture containing acetone, water, isopropyl alcohol, DMSO, Atplus 411F crop oil concentrate, and Triton X-155 surfactant in a 48.5:39:10:1.5:1.0:0.02 v/v ratio to obtain ½×, ¼×, ⅛× and 1/16× rates of the high rate. Compound requirements are based upon a 12 mL application volume at a rate of 187 liters per hectare (L/ha). Formulated compounds were applied to the plant material with an overhead Mandel track sprayer equipped with 8002E nozzles calibrated to deliver 187 L/ha over an application area of 0.503 square meters at a spray height of 18 inches (43 cm) above the average plant canopy height. Control plants were sprayed in the same manner with the solvent blank.
(§4) The treated plants and control plants were placed in a greenhouse as described above and watered by subirrigation to prevent wash-off of the test compounds. After 14 d, the condition of the test plants as compared with that of the untreated plants was determined visually and scored on a scale of 0 to 100 percent where 0 corresponds to no injury and 100 corresponds to complete kill and are presented as indicated in Table 4.

[2] = tested on: Key Broadleaf Weed and Crop Species; assay: Post-Emergent Test II: postemergent herbicidal activity, visual rating after 14 d (Table 7); type: in vivo; settings: post-emergence, 336 h; for pest or weed control at 35 g/ha: 35 g ai/ha; for pest or weed control at 70 g/ha: 70 g ai/ha; for pest or weed control at 140 g/ha: 140 g ai/ha
Excerpt: as §1, §2, §3, §4

[3] = barnyardgrass (Echinochloa crus-galli), read-out: Visual Growth Reduction (%) 14 Days After Application ECHCG
[4] = maize, corn (Zea mays), read-out: Visual Growth Reduction (%) 14 Days After Application ZEAMX
[5] = rice (Oryza sativa), read-out: Visual Growth Reduction (%) 14 Days After Application ORYSA
[6] = wheat, spring (Triticum aestivum), read-out: Visual Growth Reduction (%) 14 Days After Application TRZAS
[7] = yellow nutsedge (Cyperus esculentus), read-out: Visual Growth Reduction (%) 14 Days After Application CYPES
[8] = lambsquarters (Chenopodium album), read-out: Visual Growth Reduction (%) 14 Days After Application CHEAL
[9] = oilseed rape, canola (Brassica napus), read-out: Visual Growth Reduction (%) 14 Days After Application BRSNN
[10] = redroot pigweed (Amaranthus retroflexus), read-out: Visual Growth Reduction (%) 14 Days After Application AMARE
[11] = sunflower (Helianthus annuus), read-out: Visual Growth Reduction (%) 14 Days After Application HELAN
[12] = velvetleaf (Abutilon theophrasti), read-out: Visual Growth Reduction (%) 14 Days After Application ABUTH
[13] = wild poinsettia (Euphorbia heterophylla), read-out: Visual Growth Reduction (%) 14 Days After Application EPHHL

| Compound | pest or weed control at 35 g/ha [1, 4] [%] | pest or weed control at 70 g/ha [1, 4] [%] | pest or weed control at 140 g/ha [1, 4] [%] | pest or weed control at 35 g/ha [1, 5] [%] | pest or weed control at 70 g/ha [1, 5] [%] | pest or weed control at 140 g/ha [1, 5] [%] | pest or weed control at 35 g/ha [1, 6] [%] | pest or weed control at 70 g/ha [1, 6] [%] | pest or weed control at 140 g/ha [1, 6] [%] | pest or weed control at 35 g/ha [1, 7] [%] | pest or weed control at 70 g/ha [1, 7] [%] | pest or weed control at 140 g/ha [1, 7] [%] | pest or weed control at 35 g/ha [2, 8] [%] | pest or weed control at 70 g/ha [2, 8] [%] | pest or weed control at 140 g/ha [2, 8] [%] | pest or weed control at 35 g/ha [2, 9] [%] | pest or weed control at 70 g/ha [2, 9] [%] | pest or weed control at 140 g/ha [2, 9] [%] | pest or weed control at 35 g/ha [2, 10] [%] | pest or weed control at 70 g/ha [2, 10] [%] | further results |
| --- | --- | --- | --- | --- | --- | --- | --- | --- | --- | --- | --- | --- | --- | --- | --- | --- | --- | --- | --- | --- | --- |
| COC(=O)c1nc(-c2cc3c(cc2F)OC(F)(F)O3)c(F)c(N)c1OC [Compound 22, Methyl 4-amino-5-fluoro-3-methoxy-6-(2,2,6-trifluorobenzo[d][1,3]dioxol-5-yl)picolinate] | 0 to 29 | 60 to 74 | 75 to 84 | 0 to 29 | 0 to 29 | 0 to 29 | 0 to 29 | 45 to 59 | 60 to 74 | 95 to 100 | 95 to 100 | 95 to 100 | 0 to 29 | 0 to 29 | 0 to 29 | 0 to 29 | 0 to 29 | 0 to 29 | 0 to 29 | 0 to 29 | pest or weed control at 35 g/ha [1, 3]: 0 to 29%; pest or weed control at 70 g/ha [1, 3]: 0 to 29%; pest or weed control at 140 g/ha [1, 3]: 45 to 59%; pest or weed control at 140 g/ha [2, 10]: 0 to 29%; pest or weed control at 35 g/ha [2, 11]: 85 to 94%; pest or weed control at 70 g/ha [2, 11]: 85 to 94%; pest or weed control at 140 g/ha [2, 11]: 85 to 94%; pest or weed control at 35 g/ha [2, 12]: 0 to 29%; pest or weed control at 70 g/ha [2, 12]: 0 to 29%; pest or weed control at 140 g/ha [2, 12]: 0 to 29%; pest or weed control at 35 g/ha [2, 13]: 30 to 44%; pest or weed control at 70 g/ha [2, 13]: 45 to 59%; pest or weed control at 140 g/ha [2, 13]: 45 to 59% |
| COC(=O)c1nc(-c2cc(F)c3c(c2)OC(F)(F)O3)c(F)c(N)c1Cl [Compound 17] | 0 to 29 | 0 to 29 | 60 to 74 | 0 to 29 | 0 to 29 | 0 to 29 | 0 to 29 | 0 to 29 | 0 to 29 | 0 to 29 | 0 to 29 | 0 to 29 | 0 to 29 | 0 to 29 | 0 to 29 | 0 to 29 | 0 to 29 | 0 to 29 | 0 to 29 | 0 to 29 | pest or weed control at 140 g/ha [2, 10]: 0 to 29%; pest or weed control at 35 g/ha [2, 11]: 0 to 29%; pest or weed control at 70 g/ha [2, 11]: 0 to 29%; pest or weed control at 140 g/ha [2, 11]: 0 to 29%; pest or weed control at 35 g/ha [2, 12]: 0 to 29%; pest or weed control at 70 g/ha [2, 12]: 0 to 29%; pest or weed control at 140 g/ha [2, 12]: 0 to 29%; pest or weed control at 35 g/ha [2, 13]: 0 to 29%; pest or weed control at 70 g/ha [2, 13]: 0 to 29%; pest or weed control at 140 g/ha [2, 13]: 0 to 29% |
